Assays:
c-Kit(V654A) = target: T1, c-Kit(V654A) (Homo sapiens, UniProt P10721, V654A); assay: c-Kit(V654A) assay; assay type: biochemical; details: recombinant human c-Kit aa 544-end, 200 μM ATP, 1.4E-06 means 1.4×10^−6, read-out: Inhibition (IC50) of c-KIT (V654A)
T1 construct: amino acids 544-end containing the V654A mutation; GST (N)
Summary of the method: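 Radiometric filter-binding read-out: substrate 33P incorporation counted by scintillation after P30 filtermat washes in 75 mM phosphoric acid and methanol. Enzyme: N-GST recombinant human c-Kit aa 544-end carrying V654A.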

PDGFRalpha(V561D) = target: T2, PDGFRalpha(V561D) (Homo sapiens, UniProt P16234, V561D); assay: PDGFRalpha(V561D) assay; assay type: biochemical; details: recombinant human PDGFRalpha aa 550-end, 200 μM ATP, 1.4E-06 means 1.4×10^−6, read-out: Inhibition (IC50) of PDGFRα (V561D)
T2 construct: recombinant human PDGFRalpha, amino acids 550end containing the V561 D mutation; 6His (N)
T2 sequence (P16234 550-1089 V561D): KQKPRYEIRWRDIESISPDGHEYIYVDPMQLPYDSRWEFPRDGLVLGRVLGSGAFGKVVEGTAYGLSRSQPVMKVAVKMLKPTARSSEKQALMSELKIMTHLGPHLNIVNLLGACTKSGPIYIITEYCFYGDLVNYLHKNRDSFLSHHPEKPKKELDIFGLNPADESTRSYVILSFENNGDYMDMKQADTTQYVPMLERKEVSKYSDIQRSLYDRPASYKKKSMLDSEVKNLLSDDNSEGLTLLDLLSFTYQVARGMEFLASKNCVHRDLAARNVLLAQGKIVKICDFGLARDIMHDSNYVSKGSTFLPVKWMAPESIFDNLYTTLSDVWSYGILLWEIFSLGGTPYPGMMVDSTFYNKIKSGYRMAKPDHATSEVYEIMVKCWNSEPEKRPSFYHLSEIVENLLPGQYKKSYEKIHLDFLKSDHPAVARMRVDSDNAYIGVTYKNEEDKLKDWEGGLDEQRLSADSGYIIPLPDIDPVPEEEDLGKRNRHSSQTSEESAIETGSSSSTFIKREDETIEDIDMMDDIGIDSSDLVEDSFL
Summary of the method: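 Radiometric filter-binding assay: substrate phosphorylation by recombinant N-His-tagged human PDGFRα 550-end V561D was quenched with 3% phosphoric acid after 40 min at room temperature, then counted.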

T1 sequence (P10721 544-976 V654A): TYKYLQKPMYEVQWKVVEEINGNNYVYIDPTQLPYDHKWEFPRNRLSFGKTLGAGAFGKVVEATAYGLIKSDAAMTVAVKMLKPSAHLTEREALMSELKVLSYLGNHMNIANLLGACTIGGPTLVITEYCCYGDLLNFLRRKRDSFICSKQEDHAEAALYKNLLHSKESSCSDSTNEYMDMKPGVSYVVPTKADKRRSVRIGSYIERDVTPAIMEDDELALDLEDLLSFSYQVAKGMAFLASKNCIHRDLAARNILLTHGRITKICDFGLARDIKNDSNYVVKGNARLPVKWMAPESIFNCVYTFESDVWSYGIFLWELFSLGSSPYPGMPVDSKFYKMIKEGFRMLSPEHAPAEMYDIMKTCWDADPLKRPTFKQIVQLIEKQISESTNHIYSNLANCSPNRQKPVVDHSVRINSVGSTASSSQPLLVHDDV

| SMILES | IC50 (c-Kit(V654A)) | IC50 (PDGFRalpha(V561D)) |
| --- | --- | --- |
| O=C(c1ccc(-n2cc(-c3cc4cc(F)ccc4[nH]c3=O)nn2)cc1)N1CC[C@H](O)C1 [A182, 6-fluoro-3-{1-[4-((S)-3-hydroxy-pyrrolidine-1-carbonyl)-phenyl]-1H-[1,2,3]triazol-4-yl}-1H-quinolin-2-one] | 13 nM | 1.2 nM |
| O=C(c1ccc(-n2cc(-c3cc4cc(F)ccc4[nH]c3=O)nn2)cc1)N1CCC2(CC1)COC2 [A229, 6-fluoro-3-{1-[4-(2-oxa-7-aza-spiro[3.5]nonane-7-carbonyl)-phenyl]-1H-[1,2,3]triazol-4-yl}-1H-quinolin-2-one] | 41 nM | 150 nM |
| COCCOC[C@@H]1CCN(C(=O)c2ccc(-n3cc(-c4cc5cc(F)ccc5[nH]c4=O)nn3)cc2)C1 [A210, 6-fluoro-3-(1-{4-[(R)-3-(2-methoxy-ethoxymethyl)-pyrrolidine-1-carbonyl]-phenyl}-1H-[1,2,3]triazol-4-yl)-1H-quinolin-2-one] | 46 nM | 300 nM |
| O=C1COCCN1c1ccc(-n2cc(-c3cc4ccccc4[nH]c3=O)nn2)cc1F [A32, 3-{1-[3-fluoro-4-(3-oxo-morpholin-4-yl)-phenyl]-1H-[1,2,3]triazol-4-yl}-1H-quinolin-2-one] | 64 nM | 11 nM |
| CN1CCN(C(=O)c2ccc(-n3cc(-c4cc5cnccc5[nH]c4=O)nn3)cc2)CC1 [A62, 3-{1-[4-(4-methyl-piperazine-1-carbonyl)-phenyl]-1H-[1,2,3]triazol-4-yl}-1H-[1,6]naphthyridin-2-one] | 200 nM | 46 nM |
| CN1CCC(C(=O)c2ccc(-n3cc(-c4cc5cc(F)c(F)cc5[nH]c4=O)nn3)cc2)CC1 [A164, 6,7-difluoro-3-{1-[4-(1-methyl-piperidine-4-carbonyl)-phenyl]-1H-[1,2,3]triazol-4-yl}-1H-quinolin-2-one] | 8.4 nM | 11 nM |
| CNc1ccc(-n2cc(-c3cc4cc(F)ccc4[nH]c3=O)nn2)cc1 [A342, 6-fluoro-3-[1-(4-methylamino-phenyl)-1H-[1,2,3]triazol-4-yl]-1H-quinolin-2-one] | 25 nM | 36 nM |
| CO[C@@H]1C[C@@H](CO)N(C(=O)c2ccc(-n3cc(-c4cc5cc(F)ccc5[nH]c4=O)nn3)cc2)C1 [A241, 6-fluoro-3-{1-[4-((2S,4R)-2-hydroxymethyl-4-methoxy-pyrrolidine-1-carbonyl)-phenyl]-1H-[1,2,3]triazol-4-yl}-1H-quinolin-2-one] | 100 nM | 290 nM |
| O=C(c1ccc(-n2cc(-c3cc4ccncc4[nH]c3=O)nn2)cc1)N1CCOCC1 [A29, 3-{1-[4-(morpholine-4-carbonyl)-phenyl]-1H-[1,2,3]triazol-4-yl}-1H-[1,7]naphthyridin-2-one] | 150 nM | 23 nM |
| O=c1[nH]c2cc(F)c(F)cc2cc1-c1cn(-c2ccc(OCCN3CCNCC3)cc2)nn1 [A130, 6,7-difluoro-3-{1-[4-(2-piperazin-1-yl-ethoxy)-phenyl]-1H-[1,2,3]triazol-4-yl}-1H-quinolin-2-one] | 35 nM | 170 nM |
| CCN(CC)[C@H]1CCCN(C(=O)c2ccc(-n3cc(-c4cc5cc(F)ccc5[nH]c4=O)nn3)cc2)C1 [A337, 3-{1-[4-((S)-3-diethylamino-piperidine-1-carbonyl)-phenyl]-1H-[1,2,3]triazol-4-yl}-6-fluoro-1H-quinolin-2-one] | 75 nM | 230 nM |
| O=c1[nH]c2cc(F)c(F)cc2cc1-c1cn(-c2ccc(OCCCN3CCNCC3)cc2)nn1 [A135, 6,7-difluoro-3-{1-[4-(3-piperazin-1-yl-propoxy)-phenyl]-1H-[1,2,3]triazol-4-yl}-1H-quinolin-2-one] | 180 nM | 310 nM |
| NC(=O)[C@@H]1CCN(C(=O)c2ccc(-n3cc(-c4cc5cc(F)ccc5[nH]c4=O)nn3)cc2)C1 [A226, (R)-1-{4-[4-(6-fluoro-2-oxo-1,2-dihydro-quinolin-3-yl)-[1,2,3]triazol-1-yl]-benzoyl}-pyrrolidine-3-carboxylic acid amide] | 55 nM | 89 nM |
| O=C(c1ccc(-n2cc(-c3cc4cc(F)c(F)cc4[nH]c3=O)nn2)cc1)N1CCC(N2CCCC2)C1 (centres unmarked) [A104, 3-{1-[4-([1,3′]bipyrrolidinyl-1′-carbonyl)-phenyl]-1H-[1,2,3]triazol-4-yl}-6,7-difluoro-1H-quinolin-2-one] | 24 nM | 150 nM |
| O=C(c1cccc(-n2cc(-c3cc4ccccc4[nH]c3=O)nn2)c1)N1CCOCC1 [A76, 3-{1-[3-(morpholine-4-carbonyl)-phenyl]-1H-[1,2,3]triazol-4-yl}-1H-quinolin-2-one] | 49 nM | 30 nM |
| CN1CCC(NC(=O)c2ccc(-n3cc(-c4cc5ccccc5[nH]c4=O)nn3)cc2)CC1 [A58, N-(1-Methyl-piperidin-4-yl)-4-[4-(2-oxo-1,2-dihydro-quinolin-3-yl)-[1,2,3]triazol-1-yl]-benzamide] | 44 nM | 21 nM |

| SMILES | IC50 (c-Kit(V654A)) | IC50 (PDGFRalpha(V561D)) |
| --- | --- | --- |
| O=C(NC1COC1)c1ccc(-n2cc(-c3cc4cc(F)ccc4[nH]c3=O)nn2)cc1 [A232, 4-[4-(6-fluoro-2-oxo-1,2-dihydro-quinolin-3-yl)-[1,2,3]triazol-1-yl]-N-oxetan-3-yl-benzamide] | 160 nM | 980 nM |
| O=C(c1ccc(-n2cc(-c3cc4cncnc4[nH]c3=O)nn2)cc1)N1CCOCC1 [A94, 6-{1-[4-(Morpholine-4-carbonyl)-phenyl]-1H-[1,2,3]triazol-4-yl}-8H-pyrido[2,3-d]pyrimidin-7-one] | 3600 nM | 2300 nM |
| COC[C@@H]1CC[C@@H](COC)N1C(=O)c1ccc(-n2cc(-c3cc4cc(F)c(F)cc4[nH]c3=O)nn2)cc1 [A219, 3-{1-[4-((2S,5S)-2,5-bis-methoxymethyl-pyrrolidine-1-carbonyl)-phenyl]-1H-[1,2,3]triazol-4-yl}-6,7-difluoro-1H-quinolin-2-one] | 1600 nM | 320 nM |
| COCCN(CCOC)C(=O)c1ccc(-n2cc(-c3cc4cc(F)ccc4[nH]c3=O)nn2)cc1 [A238, 4-[4-(6-fluoro-2-oxo-1,2-dihydro-quinolin-3-yl)-[1,2,3]triazol-1-yl]-N,N-bis-(2-methoxy-ethyl)-benzamide] | 79 nM | 620 nM |
| CO[C@H]1CN(C(=O)c2ccc(-n3cc(-c4cc5cc(F)ccc5[nH]c4=O)nn3)cc2)C[C@@H]1OC [A264, 3-{1-[4-((3S,4S)-3,4-dimethoxy-pyrrolidine-1-carbonyl)-phenyl]-1H-[1,2,3]triazol-4-yl}-6-fluoro-1H-quinolin-2-one] | 75 nM | 1.2 nM |
| CN1CCN(C(=O)c2ccc(-n3cc(-c4cc5cc(F)ccc5[nH]c4=O)nn3)cc2)CC1=O [A92, 6-fluoro-3-{1-[4-(4-methyl-3-oxo-piperazine-1-carbonyl)-phenyl]-1H-[1,2,3]triazol-4-yl}-1H-quinolin-2-one] | 21 nM | 5.9 nM |
| O=C(c1ccc(-n2cc(-c3cc4c(F)cc(F)cc4[nH]c3=O)nn2)cc1)N1CCC(N2CCCC2)C1 (centres unmarked) [A105, 3-{1-[4-([1,3′]bipyrrolidinyl-1′-carbonyl)-phenyl]-1H-[1,2,3]triazol-4-yl}-5,7-difluoro-1H-quinolin-2-one] | 9.7 nM | 340 nM |
| O=C(NCCO)c1ccc(-n2cc(-c3cc4ccccc4[nH]c3=O)nn2)cc1 [A19, N-(2-hydroxy-ethyl)-4-[4-(2-oxo-1,2-dihydro-quinolin-3-yl)-[1,2,3]triazol-1-yl]-benzamide] | 38 nM | 14 nM |
| CN1CCN(C(=O)c2cccc(-n3cc(-c4cc5cc(F)ccc5[nH]c4=O)nn3)c2)CC1 [A153, 6-Fluoro-3-{1-[3-(4-methyl-piperazine-1-carbonyl)-phenyl]-1H-[1,2,3]triazol-4-yl}-1H-quinolin-2-one] | 24 nM | 4 nM |
| COCCCN1CCN(C(=O)c2ccc(-n3cc(-c4cc5cccnc5[nH]c4=O)nn3)cc2)CC1 [A89, 3-(1-{4-[4-(3-methoxy-propyl)-piperazine-1-carbonyl]-phenyl}-1H-[1,2,3]triazol-4-yl)-1H-[1,8]naphthyridin-2-one] | 36 nM | 8 nM |
| COCCO[C@H]1CCN(C(=O)c2ccc(-n3cc(-c4cc5cc(Cl)ccc5[nH]c4=O)nn3)cc2)C1 [A259, 6-chloro-3-(1-{4-[(S)-3-(2-methoxy-ethoxy)-pyrrolidine-1-carbonyl]-phenyl}-1H-[1,2,3]triazol-4-yl)-1H-quinolin-2-one] | 57 nM | 8.4 nM |
| O=C(c1ccc(-n2cc(-c3cc4cnccc4[nH]c3=O)nn2)cc1)N1CCOCC1 [A41, 3-{1-[4-(morpholine-4-carbonyl)-phenyl]-1H-[1,2,3]triazol-4-yl}-1H-[1,6]naphthyridin-2-one] | 240 nM | 44 nM |
| NC1CCN(C(=O)c2ccc(-n3cc(-c4cc5cc(F)c(F)cc5[nH]c4=O)nn3)cc2)CC1 [A143, 3-{1-[4-(4-amino-piperidine-1-carbonyl)-phenyl]-1H-[1,2,3]triazol-4-yl}-6,7-difluoro-1H-quinolin-2-one] | 19 nM | 310 nM |
| CC(=O)O[C@H]1CCN(C(=O)c2ccc(-n3cc(-c4cc5cc(F)ccc5[nH]c4=O)nn3)cc2)C1 [A180, acetic acid (S)-1-{4-[4-(6-fluoro-2-oxo-1,2-dihydro-quinolin-3-yl)-[1,2,3]triazol-1-yl]-benzoyl}-pyrrolidin-3-yl ester] | 9.5 nM | 0.5 nM |
| CN1CCN(C(=O)c2ccc(-n3cc(-c4cc5ccncc5[nH]c4=O)nn3)cc2)CC1 [A63, 3-{1-[4-(4-methyl-piperazine-1-carbonyl)-phenyl]-1H-[1,2,3]triazol-4-yl}-1H-[1,7]naphthyridin-2-one] | 130 nM | 40 nM |

— patent US11939314B2, “Quinolin-2-one derivatives” (MERCK PATENT GMBH, priority 2016, dated 2024)
